Assay results: patent US20100150839A1, “Compositions and Methods for Modulating Cognitive Function” (Massachusetts Institute of Technology, priority 2005, published 2010)

System: cultured primary hippocampal neurons
Assay: Translation reporter assay: EGFP-αCaMKII 3′ UTR reporter mRNA transfected into neurons
Type: cell-based, rat

SMILES: N#CC(=C(/N)Sc1ccccc1N)/C(C#N)=C(\N)Sc1ccccc1N [U0126]
- Translation of EGFP-αCaMKII-A20 reporter mRNA: still more strongly inhibited
